Structures can show the parent of a compound that is named as a salt.
The compounds below were run against T1, Smoothened (SMO) (Mus musculus, UniProt P56726) (assay: Smoothened (SMO)/Sonic Hedgehog (SHh) Transient Transcriptional Activation Assay (Gli-luciferase reporter in C3H10T1/2 cells)). Settings: C3H 10T1/2, 2 μM compound; transfected C3H10T1/2 cells, recombinant human SHh 250 ng/mL, 20 hours, luciferase readout; read-out: SMO CELL % INHIBITION @ 2 μM.
T1 construct: C3H10T1/2 cells (ATCC #CCL-226) were split and seeded; endogenous in cells; host or cells: C3H10T1/2 (ATCC #CCL-226)
T1 sequence (P56726 33-793): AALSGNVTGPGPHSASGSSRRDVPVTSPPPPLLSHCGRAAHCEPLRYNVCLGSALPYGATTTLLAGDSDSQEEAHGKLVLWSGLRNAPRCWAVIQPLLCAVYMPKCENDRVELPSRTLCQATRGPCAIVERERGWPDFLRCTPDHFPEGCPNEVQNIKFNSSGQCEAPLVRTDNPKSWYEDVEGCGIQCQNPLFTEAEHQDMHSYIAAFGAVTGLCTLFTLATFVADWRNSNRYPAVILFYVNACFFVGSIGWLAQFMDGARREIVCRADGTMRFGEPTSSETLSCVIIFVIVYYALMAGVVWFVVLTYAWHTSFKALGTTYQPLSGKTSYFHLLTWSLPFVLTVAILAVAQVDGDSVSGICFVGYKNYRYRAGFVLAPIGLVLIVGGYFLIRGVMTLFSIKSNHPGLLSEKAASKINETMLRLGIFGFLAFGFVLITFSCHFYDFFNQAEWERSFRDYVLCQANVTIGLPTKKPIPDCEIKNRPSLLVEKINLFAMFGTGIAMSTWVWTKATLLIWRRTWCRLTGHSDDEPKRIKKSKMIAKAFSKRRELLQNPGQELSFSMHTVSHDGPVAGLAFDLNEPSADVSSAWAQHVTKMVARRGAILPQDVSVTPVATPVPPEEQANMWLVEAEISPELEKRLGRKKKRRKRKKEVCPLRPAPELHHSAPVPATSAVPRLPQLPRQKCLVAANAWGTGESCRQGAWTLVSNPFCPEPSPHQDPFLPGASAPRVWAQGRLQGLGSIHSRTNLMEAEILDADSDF
Assay type: cell-based, murine
How it was run: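 C3H10T1/2 cells transiently transfected with a murine Gli-responsive firefly luciferase reporter plus pEGFP were serum-starved 20 h in 0.5% calf serum. Compound (2 μM to 2 nM final) was added with recombinant human SHh at 250 ng/mL final for 20 h at 37 °C. Read-out was Dual-Glo luminescence.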

inhibition at 2 µM | SMILES
102% | COc1ccc(NC(=O)N[C@@H]2CCN(C)[C@@H](c3nc4cc(C)ccc4[nH]3)C2)cn1 [Example 137, 1-{6-methoxypyridin-3-yl)-3-[(2R.4R)-1-methyl-2-(5-methyl-1H-benzimidazol-2-yl)piperidin-4-yl]urea hydrochloride]
108% | COc1ccc(NC(=O)N[C@@H]2CCN(C)[C@@H](c3nc4cc(C)c(C)cc4[nH]3)C2)cn1 [Example 138, 1-[(2R,4R)-2-(5,6-dimethyl-1H-benzimidazol-2-yl)-1-methylpiperidin-4-yl]-3-(6-methoxypyridin-3-yl)urea hydrochloride]
83.5% | COc1ccc2[nH]c([C@H]3C[C@H](NC(=O)c4ccc5c(c4F)OCCO5)CCN3C)nc2c1 [Example 143, 5-fluoro-N-[(2R,4R)-2-(5-methoxy-1H-benzimidazol-2-yl)-1-methylpiperidin-4-yl]-2,3-dihydro-1,4-benzodioxine-6-carboxamide triflouroacetate]
106% | CN1CC[C@@H](NC(=O)c2ccc3c(c2Cl)OCCO3)C[C@@H]1c1nc2cc(Cl)ccc2[nH]1 [Example 145, 5-chloro-N-[(2R,4R)-2-(5-chloro-1H-benzimidazol-2-yl)-1-methylpiperidin-4-yl]-2,3-dihydro-1,4-benzodioxine-6-carboxamide triflouroacetate]
35.3% | COc1ccc2[nH]c([C@H]3C[C@H](NC(=O)c4cc5c(cc4Cl)OCCO5)CCN3C)nc2c1 [Example 149, 7-chloro-N-[(2R,4R)-2-(5-methoxy-1H-benzimidazol-2-yl)-1-methylpiperidin-4-yl]-2,3-dihydro-1,4-benzodioxine-6-carboxamide triflouroacetate]
106% | Cc1ccc(NC(=O)N[C@@H]2CCN(C3CCC3)[C@@H](c3nc4cc(C)c(C)cc4[nH]3)C2)cn1 [Example 152, 1-[(2R,4R)-1-cycobutyl-2-(5,6-dimethy-1H-benzimidazol-2-yl)piperidin-4-yl]-3-(6-methylpyridin-3-yl)urea triflouroacetate]

The remaining lines, values behind:

SMILES | inhibition at 2 µM
COc1ccc(NC(=O)N[C@@H]2CCN(C)[C@@H](c3nc4ccc(F)cc4[nH]3)C2)cn1 [Example 139, 1-[(2R,4R)-2-(6-fluoro-1H-benzimidazol-2-yl)-1-methylpiperidin-4-yl]-3-(6-methoxypyridin-3-yl)urea hydrochloride] | 106%
CN1CC[C@@H](NC(=S)c2ccc3c(c2)OCCO3)C[C@@H]1c1nc2ccccc2[nH]1 [Example 140, N-[(2R,4R)-2-(1H-benzimidazol-2-yl)-1-methylpiperidin-4-yl]-2,3-dihydro-1,4-benzodioxine-6-carbothioamide hydrochloride] | 107%
CN1CC[C@@H](NC(=O)c2ccc3c(c2F)OCCO3)C[C@@H]1c1nc2ccccc2[nH]1 [Example 141, N-[(2R,4R)-2-(1H-benzimidazol-2-yl)-1-methylpiperidin-4-yl]-5-fluoro-2,3-dihydro-1,4-benzodioxine-6-carboxamide trifluoroacetate] | 85.3%
CN1CC[C@@H](NC(=O)c2ccc3c(c2F)OCCO3)C[C@@H]1c1nc2cc(Cl)ccc2[nH]1 [Example 142, N-[(2R,4R)-2-(5-chloro-1H-benzimidazol-2-yl)-1-methylpiperidin-4-yl]-5-fluoro-2,3-dihydro-1,4-benzodioxine-6-carboxamide triflouroacetate] | 101%
CN1CC[C@@H](NC(=O)c2ccc3c(c2Cl)OCCO3)C[C@@H]1c1nc2ccccc2[nH]1 [Example 144, N-[(2R,4R)-2-(1H-benzimidazol-2-yl)-1-methylpiperidin-4-yl]-5-chloro-2,3-dihydro-1,4-benzodioxine-6-carboxamide triflouroacetate] | 108%
COc1ccc2[nH]c([C@H]3C[C@H](NC(=O)c4ccc5c(c4Cl)OCCO5)CCN3C)nc2c1 [Example 146, 5-chloro-N-[(2R,4R)-2-(5-methoxy-1H-benzimidazol-2-yl)-1-methylpiperidin-4-yl]-2,3-dihydro-1,4-benzodioxine-6-carboxamide triflouroacetate] | 107%
CN1CC[C@@H](NC(=O)c2cc3c(cc2Cl)OCCO3)C[C@@H]1c1nc2ccccc2[nH]1 [Example 147, N-[(2R,4R)-2-(1H-benzimidazol-2-yl)-1-methylpiperidin-4-yl]-7-chloro-2,3-dihydro-1,4-benzodioxine-6-carboxamide triflouroacetate] | 69.5%
CN1CC[C@@H](NC(=O)c2cc3c(cc2Cl)OCCO3)C[C@@H]1c1nc2cc(Cl)ccc2[nH]1 [Example 148, 7-chloro-N-[(2R,4R)-2-(5-chloro-1H-benzimidazol-2-yl)-1-methylpiperidin-4-yl]-2,3-dihydro-1,4-benzodioxine-6-carboxamide triflouroacetate] | 95%
Cc1ccc(NC(=O)N[C@@H]2CCN(C3CCC3)[C@@H](c3nc4ccccc4[nH]3)C2)cn1 [Example 150, 1-[(2R,4R)-2-(1H-benzimidazol-2-yl)-1-cyclobutyl-piperidin-4-yl]-3-(6-methylpyridin-3-yl)urea triflouroacetate] | 106%
Cc1ccc2[nH]c([C@H]3C[C@H](NC(=O)Nc4ccc(C)nc4)CCN3C3CCC3)nc2c1 [Example 151, 1-[(2R,4R)-1-cyclobutyl-2-(5-methy-1H-benzimidazol-2-yl)piperidin-4-yl]-3-(6-methylpyridin-3-yl)urea triflouroacetate] | 107%
COc1ccc2[nH]c([C@H]3C[C@H](NC(=O)Nc4ccc(C)nc4)CCN3C3CCC3)nc2c1 [Example 153, 1-[(2R,4R)-1-cyclobutyl-2-(5-methoxy-1H-benzimidazol-2-y1)piperidin-4-yl]-3-(6-methylpyridin-3-yl)urea triflouroacetate] | 107%

Reference: patent US8431597B2, “Benzimidazole derivatives” (Pfizer Inc., priority 2007, dated 2013)
